Source: US7901893B2, “NPC1L1 (NPC3) and methods of identifying ligands thereof” (Merck Sharp & Dohme Corp., priority 2004, dated 2011)
“Also recorded” adds a separate entry of the source.

Tests used:
[1] = tested on: cholesterol absorption; assay: Acute rat cholesterol absorption study; format: in vivo; conditions: rat acute cholesterol absorption model
Procedure: To determine if in vitro binding activity is predictive of in vivo efficacy, the enantiomer of ezetimibe glucuronide and several close structural analogues of ezetimibe glucuronide that were tested in the rat membrane binding assay were tested in an acute rat cholesterol absorption study as described in Examples 23-26. […] For the other analogs, the same rank order of potency is observed in the in vitro and in vivo assays, further evidence that the observed binding is due to the target of ezetimibe.

[2] = tested on: cholesterol absorption; conditions: cited from earlier work
[3] = biological target: rat NPC1L1 (Rattus norvegicus, UniProt Q6T3U3); assay: Effect of ezetimibe on cholesterol uptake, rat NPC1L1 transfected CHO cells; format: cell-based; design: expressed in transfected cells; pCDNA3); conditions: EZ (10 μM); for Cholesteryl Ester, dpm ± sem / Cholesteryl Ester, dpm/mg protein ± sem / Free Cholesterol, dpm ± sem / Free Cholesterol, dpm/mg protein ± sem: 4 Hour Pulse
Procedure: The effect of ezetimibe on the ability of CHO cells stably transfected with mouse or rat NPC1L1 or mouse SR-B1 to take up ^3H-labeled cholesterol was evaluated in pulse-chase experiments. One cDNA clone of mouse NPC1L1 (C7) and three clones of rat NPC1L1 (C7, C17 and C21) were evaluated. The ability of CHO cells stably transfected with mouse SR-B1, mouse NPC1L1 and rat NPC1L1 to take up labeled cholesterol, in the absence of ezetimibe, was also evaluated in the pulse-chase experiments. Data generated in these experiments are set forth, below, in Tables 4 and 5. Additionally, the quantity of total cholesterol taken up by transfected and untransfected CHO cells in the presence of four different unlabeled cholesterol concentrations was also evaluated.
Starve. The maintenance media (F12 HAMS, 1% Pen/Strep, 10% FCS) was removed and the cells were rinsed with serum-free HAMS media. The serum-free media was then replaced with 1 mL “starve” media (F12 HAMS, Pen/Strep, 5% lipoprotein deficient serum (LPDS). The cells were then starved overnight.
Pre-Incubation/pre-dose. Media was removed from all plates and replaced with fresh starve media and preincubated for 30 minutes. Half of the wells received media containing ezetimibe (stock soln in EtOH; final conc.=10 μM).
^3H-Cholesterol Pulse. The following was added directly to each well: • 0.5 μCi ^3H-cholesterol (˜1.1×10^6 dpm/well) in 50 μl of a mixed bile salt micelle • 4.8 mM sodium taurocholate (2.581 mg/mL) • 0.6 mM sodium oleate (0.183 mg/mL) • 0.25 mM cholesterol (0.1 mg/mL) • Dispersed in “starve” media by ultrasonic vibration • Final media cholesterol concentration=5 μg/mL
Labeled cholesterol pulse time points were 4, 12, 24 minutes and 4 hours. Triplicate wells were prepared for each treatment.
Wash. At designated times, media was aspirated and cells were washed once with Hobbs Buffer A (50 mM Tris, 0.9% NaCl, 0.2% bovine serum albumin (BSA), pH 7.4) and once with Hobbs Buffer B (50 mM Tris, 0.9% NaCl, pH 7.4 (no BSA)) at 37° C.
A. 4, 12, 24 minute time points: Cells were digested overnight with 0.2N NaOH, 2 mL/well, room temperature. One 1.5 mL aliquot was removed from each well, neutralized & counted for radioactivity by scintillation counting.
B. 4 hour time point: The digested cells were analyzed by thin-layer chromatography to determine the content of cholesterol ester in the cells.
Extracts were spotted onto TLC plates and run for 30 minutes in 2 ml hexane:isopropanol (3:2) mobile phase for 30 minutes, followed by a second run in 1 ml hexane:isopropanol (3:2) mobile phase for 15 minutes.
C. Protein determination of cell extracts. Plates containing a sample of the cell extracts were placed on orbital shaker at 120 rpm for indicated times and then extracts are pooled into 12×75 tubes. Plates were dried and NaOH (2 ml/well) added. The protein content of the samples were then determined. Two additional 50 μl aliquots from all wells were assayed for total protein by the Pierce micro BCA method. The quantity of labeled cholesterol observed in the cells was normalized to the quantity of protein in the cells.

[4] = tested on: intestinal cholesterol absorption; assay: Cholesterol absorption in mice, dual fecal isotope ratio method; format: in vivo, mouse
Procedure: Cholesterol absorption in the mice was determined by the dual fecal isotope ratio method as described by Altmann et al. (Biochim. Biophys. Acta. 1580(1): 77-93 (2002)). Mice (n—4-6/group) were fed a standard rodent chow diet and in some groups treated daily with a maximally effective dose of ezetimibe (10 mg/kg). Mice were gavaged with ^14C-cholesterol (1 μCi, 0.1 mg unlabeled cholesterol) and ^3H-sitostanol (2 μCi) in 0.1 ml corn oil. Feces were collected for 2 days and fecal ^14C-cholesterol and ^3H-sitostanol levels were determined by combustion in a Packard Oxidizer. The fraction of cholesterol absorbed, as evaluated by the fecal dual isotope technique, was similar in wild type (+/+) and heterozygous mice (+/−) fed a chow diet (heterozygous mice absorbed 46±5% and age matched wild type mice absorbed 51±3% of the dose of ^14C-cholesterol). The NPC1L1 knockout mice (−/−) absorbed 15.6±0.4% of the ^14C-cholesterol, which was similar to the wild type mice treated with a maximally effective dose of ezetimibe (16.1±0.3%), and reduced by 69% compared to wild type mice (p<0.001). In NPC1L1 knockout treated with ezetimibe at 10 mg/kg/day, cholesterol absorption was similar to that seen in the untreated knockout mice (16.2±0.6% compared to 15.6%±0.4%, respectively). […]

## O=C(O)C1OC(Oc2ccc(C3C(CCC(O)c4ccc(F)cc4)C(=O)N3c3ccc(F)cc3)cc2)C(O)C(O)C1O (single isomer, unassigned) [Compound 4]
[1]
  activity in vivo: inactive; also recorded: lack of activity

## O=C1[C@H](CC[C@H](O)c2ccc(F)cc2)[C@@H](c2ccc(O)cc2)N1c1ccc(F)cc1 [ezetimibe]
[2]; monkey
  ED50: 0.5 µg/kg
[2]; rhesus
  potency (ED50) in vivo: 0.0005 mpk
[3]; rNPC1L1(C7)
  Cholesteryl Ester, dpm ± sem: 191 ± 54 dpm
  Cholesteryl Ester, dpm/mg protein ± sem: 1496 ± 403 dpm/mg protein
  Free Cholesterol, dpm ± sem: 70628 ± 212 dpm
  Free Cholesterol, dpm/mg protein ± sem: 556855 ± 7481 dpm/mg protein
[3]; rNPC1L1(C17)
  Cholesteryl Ester, dpm ± sem: 202 ± 10 dpm
  Cholesteryl Ester, dpm/mg protein ± sem: 1510 ± 62 dpm/mg protein
  Free Cholesterol, dpm ± sem: 71646 ± 446 dpm
  Free Cholesterol, dpm/mg protein ± sem: 536651 ± 7146 dpm/mg protein
[3]; rNPC1L1(C21)
  Cholesteryl Ester, dpm ± sem: 454 ± 33 dpm
  Cholesteryl Ester, dpm/mg protein ± sem: 3193 ± 265 dpm/mg protein
  Free Cholesterol, dpm ± sem: 69106 ± 711 dpm
  Free Cholesterol, dpm/mg protein ± sem: 485460 ± 4410 dpm/mg protein
[3]; 4 Min Pulse, rNPC1L1(C7)
  Total Cholesterol, dpm ± sem: 3268 ± 121 dpm
  Total Cholesterol, dpm/mg protein ± sem: 27285 ± 968 dpm/mg protein
[3]; 4 Min Pulse, rNPC1L1(C17)
  Total Cholesterol, dpm ± sem: 3676 ± 134 dpm
  Total Cholesterol, dpm/mg protein ± sem: 28675 ± 527 dpm/mg protein
[3]; 4 Min Pulse, rNPC1L1(C21)
  Total Cholesterol, dpm ± sem: 3769 ± 147 dpm
  Total Cholesterol, dpm/mg protein ± sem: 27098 ± 689 dpm/mg protein
[3]; 12 Min Pulse, rNPC1L1(C7)
  Total Cholesterol, dpm ± sem: 4664 ± 63 dpm
  Total Cholesterol, dpm/mg protein ± sem: 38581 ± 784 dpm/mg protein
[3]; 12 Min Pulse, rNPC1L1(C17)
  Total Cholesterol, dpm ± sem: 4579 ± 257 dpm
  Total Cholesterol, dpm/mg protein ± sem: 34063 ± 1619 dpm/mg protein
[3]; 12 Min Pulse, rNPC1L1(C21)
  Total Cholesterol, dpm ± sem: 4703 ± 231 dpm
  Total Cholesterol, dpm/mg protein ± sem: 33985 ± 1928 dpm/mg protein
[3]; 24 Min Pulse, rNPC1L1(C7)
  Total Cholesterol, dpm ± sem: 7829 ± 204 dpm
  Total Cholesterol, dpm/mg protein ± sem: 63482 ± 368 dpm/mg protein
[3]; 24 Min Pulse, rNPC1L1(C17)
  Total Cholesterol, dpm ± sem: 8192 ± 237 dpm
  Total Cholesterol, dpm/mg protein ± sem: 62279 ± 4352 dpm/mg protein
[3]; 24 Min Pulse, rNPC1L1(C21)
  Total Cholesterol, dpm ± sem: 8760 ± 293 dpm
  Total Cholesterol, dpm/mg protein ± sem: 66165 ± 2181 dpm/mg protein
[4]; NPC1L1 knockout mice, ezetimibe 10 mg/kg/day
  fraction of ^14C-cholesterol absorbed: 16.2±0.6%
[4]; wild type mice, ezetimibe 10 mg/kg daily
  fraction of ^14C-cholesterol absorbed: 16.1±0.3%
